Reference: PMC8611036, “An integrated method for optimized identification of effective natural inhibitors against SARS-CoV-2 3CLpro” (Scientific Reports, 2021)

How the values were obtained:
SARS-CoV 3CLpro [1] = assay type: biochemical; conditions: activity class by pIC50 threshold 6
SARS-CoV-2 3CLpro = SARS-CoV-2 3CLpro (Severe acute respiratory syndrome coronavirus 2, UniProt P0DTD1); conditions: SARS-CoV pIC50 multiplied by similarity index (SI), training set compounds
SARS-CoV 3CLpro [2] = conditions: SARS-CoV 3CLpro inhibitors (training set), ref: per compound, cited from earlier work; for pIC50: from literature IC50; for IC50: literature values

Structure (SMILES) | Inact.(<6)/Act.(>=6) (SARS-CoV 3CLpro [1]) | SI*pIC50 (SARS-CoV-2 3CLpro) | pIC50 (SARS-CoV 3CLpro [2]) | IC50 (SARS-CoV 3CLpro [2]) [µM]
CC(C)C[C@H](NC(=O)[C@@H](NC(=O)OCc1ccccc1)C(C)C)C(=O)N[C@@H](C[C@@H]1CCNC1=O)C(=O)c1nccs1 [CMP183] | Inact. (Inact.(<6)) | 5.174 | 5.022 | 9.5
Cc1oc(C(C)(C)C)cc1-c1cc(NS(=O)(=O)c2cccs2)[nH]n1 [CMP136] | Inact. (Inact.(<6)) | 5.152 | 5 | 10
O=C1Nc2ccc(S(=O)(=O)N3CCOCC3)cc2C1=O [CMP159] | Inact. (Inact.(<6)) | 5.05 | 4.898 | 12.7
COc1ccc(C(c2c(O)c3cc(C)ccc3oc2=O)c2c(O)c3cc(C)ccc3oc2=O)cc1 [CMP105] | Inact. (Inact.(<6)) | 5.171 | 5.02 | 9.56
Cc1coc2c1C(=O)C(=O)c1c-2ccc2c1CCCC2(C)C [CMP130] | Inact. (Inact.(<6)) | 5.948 | 5.796 | 1.6
Cc1c(O)c(O)cc2c1CC=C1[C@@]2(C)CC[C@@]2(C)[C@@H]3C[C@](C)(C(=O)O)CC[C@]3(C)CC[C@]12C [CMP161] | Inact. (Inact.(<6)) | 4.816 | 4.664 | 21.7
CCCn1c(NCc2ccc(N3N=C(c4ccccc4)CC3c3ccccc3)cc2)nc2ccccc21 (stereo not drawn) [CMP115] | Inact. (Inact.(<6)) | 5.249 | 5.097 | 8
COC(=O)[C@]1(C)CCC[C@]2(C)c3ccc(C(C)C)cc3CC[C@@H]12 [CMP125] | Inact. (Inact.(<6)) | 3.836 | 3.684 | 207
CCOC(=O)C(=CNc1ccc(S(=O)(=O)c2ccc(/N=C/C(C(=O)OCC)=C(\O)OCC)cc2)cc1)C(=O)OCC [CMP139] | Inact. (Inact.(<6)) | 4.6468 | 4.495 | 32
C=C[C@@]1(C)CC[C@H]2C(=CC[C@@H]3[C@]2(C)CCC[C@@]3(C)C(=O)O)C1 [CMP133] | Inact. (Inact.(<6)) | 3.699 | 3.547 | 284
O=C1C=CC(=O)c2cn(Cc3ccccc3)cc21 [CMP111] | Inact. (Inact.(<6)) | 5.307 | 5.1549 | 7
O=C1C(=O)N(Cc2ccccc2)c2ccc(S(=O)(=O)N3CCOCC3)cc21 [CMP148] | Inact. (Inact.(<6)) | 5.01 | 4.858 | 13.9
O=C(Oc1cncc(Cl)c1)c1cc2ccccc2oc1=O [CMP162] | Act. (Act.(>=6)) | 7.11 | 6.959 | 0.11
O=C(Oc1cncc(Cl)c1)c1cscn1 [CMP166] | Act. (Act.(>=6)) | 6.72 | 6.569 | 0.27
O=C(Oc1cncc(Cl)c1)c1cccc2ccccc12 [CMP168] | Act. (Act.(>=6)) | 7.073 | 6.921 | 0.12
COc1ccc(N2C(=O)NC(=O)/C(=C\c3cc(Cl)c(OCc4cccc(C(=O)O)c4)c(Cl)c3)C2=O)cc1 [CMP103] | Inact. (Inact.(<6)) | 5.315 | 5.164 | 6.86
CCOC(=O)/C=C/[C@H](C[C@@H]1CCNC1=O)NC(=O)[C@H](CC(C)C)NC(=O)[C@@H](NC(=O)[C@H](CO)NC(=O)OC(C)(C)C)C(C)C [CMP179] | Inact. (Inact.(<6)) | 5.152 | 5 | 10

Structure (SMILES) | Inact.(<6)/Act.(>=6) (SARS-CoV 3CLpro [1]) | SI*pIC50 (SARS-CoV-2 3CLpro) | pIC50 (SARS-CoV 3CLpro [2]) | IC50 (SARS-CoV 3CLpro [2]) [µM]
O=C(/C=C/c1ccccc1)Nc1ccccc1SC(=O)/C=C/c1ccccc1 [CMP108] | Inact. (Inact.(<6)) | 6.127 | 5.975 | 1.06
COc1cc(C[S+]([O-])c2nc3cccnc3s2)oc(=O)c1 (stereo not drawn) [CMP109] | Inact. (Inact.(<6)) | 5.294 | 5.143 | 7.2
CC1(C)CC(=O)c2c(NCc3ccco3)sc(C#N)c2C1 [CMP142] | Inact. (Inact.(<6)) | 4.948 | 4.796 | 16
CCOC(=O)/C=C/[C@H](C[C@@H]1CCNC1=O)NC(=O)[C@H](Cc1ccccc1)NC(=O)[C@@H](NC(=O)[C@H](CO)NC(=O)OC(C)(C)C)C(C)C [CMP180] | Inact. (Inact.(<6)) | 4.976 | 4.824 | 15
CC1CCN(S(=O)(=O)c2ccc3c(c2)C(=O)C(=O)N3)CC1 [CMP146] | Inact. (Inact.(<6)) | 6.08 | 5.928 | 1.18
O=C(Oc1ccc(S(=O)(=O)c2ccc(OC(=O)C(Cl)=C(Cl)Cl)cc2)cc1)C(Cl)=C(Cl)Cl [CMP137] | Act. (Act.(>=6)) | 6.198 | 6.046 | 0.9
COc1cc(C=NNC(=O)C(=Cc2ccccc2)NC(=O)c2ccccc2)cc(OC)c1O [CMP123] | Inact. (Inact.(<6)) | 4.265 | 4.113 | 77.1
CC(C)c1cc2c(cc1O)[C@@]1(C)CCCC(C)(C)[C@@H]1CC2 [CMP132] | Inact. (Inact.(<6)) | 4.457 | 4.305 | 49.6
Cc1coc2c1C(=O)C(=O)c1c-2ccc2c1CCCC2(C)CO (stereo not drawn) [CMP131] | Inact. (Inact.(<6)) | 5.122 | 4.971 | 10.7
CCn1c(NCc2ccc(N3N=C(c4ccccc4)CC3c3ccccc3)cc2)nc2ccccc21 (stereo not drawn) [CMP114] | Inact. (Inact.(<6)) | 5.228 | 5.076 | 8.4
Nc1ncc(S(=O)(=O)c2ccc(Cl)cc2)c(N)n1 [CMP141] | Inact. (Inact.(<6)) | 5.374 | 5.222 | 6
CCC(C)c1ccc(N(C(=O)c2ccco2)C(C(=O)NC2CCCC2)c2cccnc2)cc1 (stereo not drawn) [CMP144] | Inact. (Inact.(<6)) | 5.809 | 5.658 | 2.2
C=CCSc1ccccc1NC(=O)/C=C/c1ccccc1 [CMP106] | Inact. (Inact.(<6)) | 4.857 | 4.706 | 19.7
O=C(Cc1cncc(Cl)c1)c1cccs1 [CMP181] | Act. (Act.(>=6)) | 6.453 | 6.301 | 0.5
CCOC(=O)/C=C/[C@H](C[C@@H]1CCNC1=O)NC(=O)[C@H](CC=C(C)C)CC(=O)[C@@H](NC(=O)c1cc(C)on1)C(C)C [CMP160] | Inact. (Inact.(<6)) | 4.307 | 4.1549 | 70
CC(=O)c1ccccc1S(=O)(=O)c1ccccc1C(=O)O [CMP147] | Inact. (Inact.(<6)) | 4.948 | 4.796 | 16
